Experimental findings from patent publication US9284324B2, “Phenylpyrrole derivative” (TAISHO PHARMACEUTICAL CO., LTD, priority 2011, dated 2016) are described below.

One data set concerns the target T1, H3 receptor (Rattus norvegicus, UniProt Q9QYN8).
T1 construct: The frontal cortex dissected from rats was homogenized; from tissue; host or cells: rat frontal cortex membrane fraction
The experiment in a line: Rat H3 receptor binding test (N-α-methyl[3H]histamine). Particulars: rat frontal cortex membrane fraction, N-α-methyl[3H]histamine 0.75 nM. As to the method: (Test 1: Rat H3 Receptor Binding Test)
The frontal cortex dissected from rats was homogenized with a Teflon homogenizer in a 50 mM Tris-HCl buffer solution (pH 7.4) containing a protease inhibitor (Complete EDTA-free; Roche Diagnostics) and 5 mM EDTA. The homogenate was centrifuged at 48,000×g for 15 minutes. The supernatant was removed and the pellet was suspended in a 50 mM Tris-HCl buffer solution (pH 7.4) containing 5 mM EDTA and centrifuged at 48,000×g for 15 minutes. The supernatant was removed and the pellet was suspended in a 50 mM Tris-HCl buffer solution (pH 7.4) containing 5 mM EDTA to give a membrane fraction. The membrane fraction (the protein content in the final reaction mixture: 75 μg), N-α-methyl[^3H]histamine (PerkinElmer; final concentration: 0.75 nM) and a test drug were mixed and subjected to reaction at room temperature for an hour. After the end of the reaction, the reaction mixture was suction filtered through a 96-well GF/C filter plate pretreated with 0.3% polyethyleneimine; the filters were then washed five times with a 50 mM Tris-HCl buffer solution (pH 7.4) containing 5 mM EDTA. After the washing, the filters were dried and a scintillator was added to measure the residual radioactivity on the filter with TopCount (PerkinElmer).
The residual radioactivity in the presence of 10 μM thioperamide was taken as indicative of nonspecific binding and the difference from the residual radioactivity in the absence of thioperamide was taken as indicative of specific binding. Each of the test drugs was dissolved and diluted in DMSO at varying concentrations to plot a dose-response curve from the corresponding residual radio activities; the concentration of test drug that inhibited the specific binding by 50% (IC50) was determined from this curve.

Another data set addresses T2, histamine H3 receptor (Rattus norvegicus, UniProt Q9QYN8).
T2 construct: The frontal cortex dissected from rats was homogenized; from tissue; host or cells: rat frontal cortex membrane fraction
Briefly: [35S]GTP-γ-S binding test. It counts as biochemical. The conditions noted are these: rat frontal cortex membrane fraction, R(−)-α-methyl histamine 300 nM, [35S]GTP-γ-S 0.3 nM. As to the method: (Test 2: [^35S]GTP-γ-S Binding Test)
The frontal cortex dissected from rats was homogenized with a Teflon homogenizer in a 30 mM Tris-HCl buffer solution (pH 7.4) containing 2.5 mM calcium chloride dihydrate. The homogenate was centrifuged at 48,000×g for 15 minutes. The supernatant was removed and the pellet was suspended in a 30 mM Tris-HCl buffer solution (pH 7.4) containing 2.5 mM calcium chloride dihydrate and centrifuged at 48,000×g for 15 minutes. The supernatant was removed and the pellet was suspended in a 30 mM Tris-HCl buffer solution (pH 7.4) containing 2.5 mM calcium chloride dihydrate and after incubation at 37° C. for 30 minutes, the suspension was centrifuged at 48,000×g for 15 minutes. The resulting supernatant was removed and the pellet was suspended in a 20 mM HEPES buffer solution (pH 7.4) containing 100 mM sodium chloride and 10 mM magnesium chloride to give a membrane fraction. […] After the washing, the filters were dried and a scintillator was added to measure the residual radioactivity on the filter with TopCount (PerkinElmer).
The residual radioactivity in the absence of R(−)-α-methyl histamine was taken as indicative of nonspecific binding and the difference from the residual radioactivity in the presence of R(−)-α-methyl histamine was taken as indicative of specific binding. […]
A general note: GTPγS is a poorly hydrolysed GTP analogue; its binding reports G protein activation.

Data set [1] is described as follows: Rat in vivo pharmacokinetic study. Particulars: for concentration at 1 h / Kp at 1 h: SD, rat, in vivo, po, 3 mg/kg. Also on record: species or system SD rats. As to the method:
(Test 3: Rat In Vivo Pharmacokinetic Study)
SD rats were given a single oral administration of Compound No. 3, 4 or 7 at a dose of 3 mg/kg and an hour after the administration, the compound's distribution among the plasma, brain, and cerebrospinal fluid was checked. Quantification was effected by a high-performance chromatography/tandem mass spectrometer API 4000 (LC-MS/MS; AB Sciex). As it turned out, Compound Nos. 3, 4 and 7 had good brain/plasma movement ratios of 4.5, 2.9 and 2.2, respectively, with the corresponding intracerebral concentrations of 78.2 ng/g, 7.06 ng/g and 408 ng/g.

Data set [2] addresses T3, P-glycoprotein (Human MDR1) (Homo sapiens, UniProt P08183).
T3 construct: expressed in transfected cells; host or cells: LLC-GA5-COL300 (derived from pig kidney LLC-PK1)
Briefly: P-glycoprotein substrate recognition test. The class given is in vitro ADME. Particulars: ratio of apical→basal and basal→apical membrane permeation coefficients; for efflux ratio at 10 μM: human, LLC-PK1, LLC-GA5-COL300 cells on transwell. As to the method:
(Test 4: P-Glycoprotein Substrate Recognition Test)
LLC-GA5-COL300 cells (Human MDR1 expressing system derived from pig kidney derived, cultured renal epithelial cell line LLC-PK1) were cultured on a transwell. Immediately before the test, the culture medium was replaced by Hank's balanced salt solution (HBSS) and the test was then conducted. A solution of an assay compound adjusted to a final concentration of 10 μM was added to the donor side of LLC-GA5-COL300 cells and after the passage of a predetermined period of time, a specified quantity of […] was sampled from the acceptor side. The concentration of the assay compound in the sample was measured by LC-MS/MS. From the amounts of the compound that accumulated and passed into the acceptor side, membrane permeation coefficients (×10^−6 cm/sec) were calculated for apical→basal and basal→apical directions and their relative ratio (efflux ratio) was determined to evaluate the P-glycoprotein substrate recognition.

[3] abbreviates: cerebrospinal fluid/plasma movement ratio.
Where [4] appears, read: SD rats, single oral 3 mg/kg, an hour after administration.

Where “and” joins values, the source holds several entries; their conditions need not be identical. Equal values may be shown once. Bounds are passed on as bounds.

T3 sequence (P08183 whole entry): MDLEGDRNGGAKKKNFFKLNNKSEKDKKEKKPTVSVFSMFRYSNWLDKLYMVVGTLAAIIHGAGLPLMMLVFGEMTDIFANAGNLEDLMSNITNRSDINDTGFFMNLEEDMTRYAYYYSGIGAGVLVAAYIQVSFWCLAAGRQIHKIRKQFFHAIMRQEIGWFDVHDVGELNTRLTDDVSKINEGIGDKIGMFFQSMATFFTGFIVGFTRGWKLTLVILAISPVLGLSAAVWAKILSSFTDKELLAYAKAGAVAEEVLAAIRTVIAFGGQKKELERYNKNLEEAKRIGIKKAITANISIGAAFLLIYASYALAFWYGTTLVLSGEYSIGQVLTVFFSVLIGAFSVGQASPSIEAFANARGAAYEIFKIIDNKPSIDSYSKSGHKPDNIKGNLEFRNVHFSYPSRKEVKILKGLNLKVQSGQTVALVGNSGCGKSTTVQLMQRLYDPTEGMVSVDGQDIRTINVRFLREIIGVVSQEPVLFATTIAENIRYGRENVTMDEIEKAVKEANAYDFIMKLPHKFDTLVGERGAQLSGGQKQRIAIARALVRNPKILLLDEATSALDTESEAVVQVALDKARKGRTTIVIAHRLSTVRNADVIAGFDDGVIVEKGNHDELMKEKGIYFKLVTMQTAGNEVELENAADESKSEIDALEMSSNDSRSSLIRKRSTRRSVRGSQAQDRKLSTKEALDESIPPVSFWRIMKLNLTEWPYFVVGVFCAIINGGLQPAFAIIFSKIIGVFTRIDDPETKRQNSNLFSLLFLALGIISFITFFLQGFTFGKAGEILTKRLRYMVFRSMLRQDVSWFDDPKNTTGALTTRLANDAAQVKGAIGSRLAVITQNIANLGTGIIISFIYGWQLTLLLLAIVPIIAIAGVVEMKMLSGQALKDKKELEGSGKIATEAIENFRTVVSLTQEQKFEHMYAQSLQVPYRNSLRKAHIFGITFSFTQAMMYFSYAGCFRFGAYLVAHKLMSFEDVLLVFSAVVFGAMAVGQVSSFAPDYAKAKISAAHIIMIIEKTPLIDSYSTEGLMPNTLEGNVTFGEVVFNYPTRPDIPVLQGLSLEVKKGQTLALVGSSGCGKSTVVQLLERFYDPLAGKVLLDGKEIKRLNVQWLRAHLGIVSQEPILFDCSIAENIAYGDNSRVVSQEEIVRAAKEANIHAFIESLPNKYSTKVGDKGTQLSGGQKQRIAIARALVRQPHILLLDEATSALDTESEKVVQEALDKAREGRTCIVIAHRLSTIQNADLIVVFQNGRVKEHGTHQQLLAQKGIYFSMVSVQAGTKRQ
T1 sequence (Q9QYN8 whole entry): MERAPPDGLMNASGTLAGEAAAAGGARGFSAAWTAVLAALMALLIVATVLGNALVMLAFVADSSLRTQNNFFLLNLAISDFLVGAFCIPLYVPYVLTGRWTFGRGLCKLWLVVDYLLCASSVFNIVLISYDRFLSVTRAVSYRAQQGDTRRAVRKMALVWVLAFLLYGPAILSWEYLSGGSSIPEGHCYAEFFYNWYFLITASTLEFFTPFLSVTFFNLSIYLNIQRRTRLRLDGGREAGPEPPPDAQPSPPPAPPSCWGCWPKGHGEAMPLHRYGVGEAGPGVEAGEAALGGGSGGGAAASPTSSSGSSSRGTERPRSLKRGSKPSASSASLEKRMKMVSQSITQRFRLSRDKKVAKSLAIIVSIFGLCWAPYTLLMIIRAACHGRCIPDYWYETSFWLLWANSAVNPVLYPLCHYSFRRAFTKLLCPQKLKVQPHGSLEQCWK
T2 sequence (Q9QYN8 whole entry): as above

What is called IC50 is the midpoint of a concentration-inhibition curve. Read a low IC50 as greater potency. Turning to `COC(=O)c1ccn(-c2ccc(OC3CCN(C4CCC4)CC3)cc2)c1` [Compound No. 1, methyl 1-{4-[(1-cyclobutylpiperidin-4-yl)oxy]phenyl}-1H-pyrrole-3-carboxylate], the IC50 on H3 receptor was found to be 12 nM.

Take `O=C(O)c1ccn(-c2ccc(OC3CCN(C4CCC4)CC3)cc2)c1` [Compound No. 2, 1-{4-[(1-cyclobutylpiperidin-4-yl)oxy]phenyl}-1H-pyrrole-3-carboxylic acid]: at H3 receptor, the IC50 is 34 nM.

The term Kp denotes the ratio of the level in a tissue or fluid to that in plasma or blood. Usually efflux ratio stands for the permeability from basolateral to apical divided by that in the opposite direction, in the common usage. As for `O=C(c1ccn(-c2ccc(OC3CCN(C4CCC4)CC3)cc2)c1)N1CCC1` [Compound No. 3, azetidin-1-yl (1-{4-[(1-cyclobutylpiperidin-4-yl)oxy]phenyl}-1H-pyrrol-3-yl)methanone], the IC50 at H3 receptor was 1.7 nM; at histamine H3 receptor, at most 100 nM. Further, the concentration at 1 h in data set [1] was 78.2 ng/g and 5.75 ng/mL. Moreover, the Kp at 1 h came to 4.5 in data set [1] (brain/plasma movement ratio) and 0.3 in data set [1] (setting [3]). For the same compound, the efflux ratio at 10 μM in data set [2] was found to be 1.4.

As for `Cc1cc(C(=O)N2CCCC2)c(C)n1-c1ccc(OC2CCN(C3CCC3)CC2)cc1` [Compound No. 15, (1-{4-[(1-cyclobutylpiperidin-4-yl)oxy]phenyl}-2,5-dimethyl-1H-pyrrol-3-yl)(pyrrolidin-1-yl)methanone], the IC50 at H3 receptor worked out at 6.6 nM.

At H3 receptor, `C[C@@H]1CCCN1CCCOc1ccc(-n2ccc(C(=O)N3CCCC3)c2)cc1` [Compound No. 16, [1-(4-{3-[(2R)-2-methylpyrrolidin-1-yl]propoxy}phenyl)-1H-pyrrol-3-yl](pyrrolidin-1-yl)methanone] came in with an IC50 of 1.5 nM. Also, in data set [2], the efflux ratio at 10 μM came out at 3.1.

`CC(C)N1CCC(Oc2ccc(-n3ccc(C(=O)N4CCCC4)c3)cc2)CC1` [Compound No. 17, (1-{4-[(1-isopropylpiperidin-4-yl)oxy]phenyl}-1H-pyrrol-3-yl)(pyrrolidin-1-yl)methanone] returned an IC50 on H3 receptor of 1.1 nM.

Turning to `CNC(=O)c1ccn(-c2ccc(OC3CCN(C(C)C)CC3)cc2)c1` [Compound No. 18, 1-{4-[(1-isopropylpiperidin-4-yl)oxy]phenyl}-N-methyl-1H-pyrrole-3-carboxamide], the IC50 on H3 receptor worked out at 38 nM.

The compound `CC(C)(C)N1CCC(Oc2ccc(-n3ccc(C(=O)N4CCCC4)c3)cc2)CC1` [Compound No. 19, (1-{4-[(1-tert-butylpiperidin-4-yl)oxy]phenyl}-1H-pyrrol-3-yl)(pyrrolidin-1-yl)methanone] came in with an IC50 on H3 receptor of 1.7 nM.

The compound `CNC(=O)c1ccn(-c2ccc(OC3CCN(C(C)(C)C)CC3)cc2)c1` [Compound No. 20, 1-{4-[(1-tert-butylpiperidin-4-yl)oxy]phenyl}-N-methyl-1H-pyrrole-3-carboxamide] had an IC50 at H3 receptor of 21 nM.

As for `CN(C)C(=O)c1ccn(-c2ccc(OC3CCN(C4CCC4)CC3)cc2)c1` [compound 6], the IC50 at H3 receptor was found to be 3.2 nM. In data set [2], the efflux ratio at 10 μM was 1.2.

As to `CNC(=O)c1ccn(-c2ccc(OC3CCN(C4CCC4)CC3)cc2)c1` [compound 7, 1-{4-[(1-cyclobutylpiperidin-4-yl)oxy]phenyl}-N-methyl-1H-pyrrole-3-carboxamide], the IC50 is 5.9 nM at H3 receptor and at most 100 nM on histamine H3 receptor. Moreover, the concentration at 1 h in data set [1] was 408 ng/g and 50.5 ng/mL. The Kp at 1 h in data set [1] (brain/plasma movement ratio) worked out at 2.2; in data set [1] (setting [3]), 0.3. In addition, in data set [2], the efflux ratio at 10 μM was 1.

`NC(=O)c1ccn(-c2ccc(OC3CCN(C4CCC4)CC3)cc2)c1` [compound 8, 1-{4-[(1-cyclobutylpiperidin-4-yl)oxy]phenyl}-1H-pyrrole-3-carboxamide] returned an IC50 at H3 receptor of 9.5 nM. Moreover, the efflux ratio at 10 μM in data set [2] came to 1.6.

`O=C(c1ccn(-c2ccc(OC3CCN(C4CCC4)CC3)cc2)c1)N1CCOCC1` [compound 9, (1-{4-[(1-cyclobutylpiperidin-4-yl)oxy]phenyl}-1H-pyrrol-3-yl)(morpholin-4-yl)methanone] gave an IC50 on H3 receptor of 2.5 nM. Also, in data set [2], the efflux ratio at 10 μM came out at 1.6.

`C[C@@H]1CN(C(=O)c2ccn(-c3ccc(OC4CCN(C5CCC5)CC4)cc3)c2)C[C@H](C)O1` [compound 10] returned a half-maximal inhibitory concentration (IC50) at H3 receptor of 6.8 nM.

On to `O=C(c1ccn(-c2ccc(OC3CCN(C4CCC4)CC3)cc2)c1)N1CC2(COC2)C1` [compound 11, (1-{4-[(1-cyclobutylpiperidin-4-yl)oxy]phenyl}-1H-pyrrol-3-yl)(2-oxa-6-azaspiro[3.3]hepta-6-yl)methanone], for which the IC50 on H3 receptor was determined as 1 nM.

As to `CC(C)(C)NC(=O)c1ccn(-c2ccc(OC3CCN(C4CCC4)CC3)cc2)c1` [compound 12, N-tert-butyl-1-{4-[(1-cyclobutylpiperidin-4-yl)oxy]phenyl}-1H-pyrrole-3-carboxamide], the IC50 at H3 receptor amounted to 5.2 nM.

In turn, `O=C(NC1CCC1)c1ccn(-c2ccc(OC3CCN(C4CCC4)CC3)cc2)c1` [compound 13, N-cyclobutyl-1-{4-[(1-cyclobutylpiperidin-4-yl)oxy]phenyl}-1H-pyrrole-3-carboxamide] displayed an IC50 on H3 receptor of 3.7 nM.

In turn, “(1-{4-[(1-cyclobutylpiperidin-4-yl)oxy]phenyl}-1H-pyrrol-3-yl)(piperidin-1-yl)methanol [compound 5]” yielded an IC50 at H3 receptor of 3.2 nM.

Take “(1-{4-[(1-cyclobutylpiperidin-4-yl)oxy]phenyl}-1H-pyrrol-3-yl)(pyrrolidin-1-yl)methanol [compound 4]”: on H3 receptor, the IC50 came to 1.1 nM. Moreover, in data set [1] (setting [4]), the brain/plasma movement ratio was 2.9 and the intracerebral concentration was determined as 7.06 ng/g. Also, the Efflux ratio in data set [2] (LLC-GA5-COL300 cells on transwell, 10 μM) stood at 1.3.
